Consider one compound from US11795190B2, “D-glycero-B-D-heptose 1-phosphate (HMP) conjugates and use for targeted immune modulation” (NATIONAL RESEARCH COUNCIL OF CANADA, priority 2017, dated 2023).

Assay [1] relates to HCT 116 cells deficient in TIFA protein expression (TIFA KO). Description: IL-8 ELISA in TIFA knockout HCT 116 cells. Conditions: TIFA KO HCT 116. It counts as cell-based, human. Here is the method: Wild type (WT) or TIFA knockout (TIFA KO) cells were treated with compounds in the presence of digitonin for 20 min, treatment was removed, cells were washed and then cultured in normal medium without the synthetic compounds for 6 hr before IL-8 levels in culture supernatants were measured by ELISA. (A) Cells were treated with water or 10 μg/mL of the indicated compound. Data are means±standard error mean of technical triplicates. (B) Cells were treated with the NOD1 agonist C12-iE-DAP (39.8 μM) or with two different molar concentrations of compounds (30 μM or 150 μM). Two batches of dd-β-HBP and dd-β-HMP synthesized independently of one another were tested (batch #1 and batch #2) to assess consistency of the chemical synthesis. Data are means±standard error mean of two (150 μM treatment) or three (all other treatments) independent experiments. Nod1 agonist: C12-iE-DAP (20 μg/ml, 39.8 μM); JS-12: D-glycero-D-manno-heptose; JS-2: D-glycero-D-manno-heptose 7-phosphate; JS-7:D-glycero-β-D-manno-heptose-phosphate; JS-8: d-glycero-α-d-manno-heptose-phosphate; JS-9: β-d-mannose phosphate; JS-6:d-glycero-β-d-manno heptose 1,7-biphosphate; JS-5: d-glycero-α-d-manno heptose 1,7-biphosphate.
FIG. 11. Stimulation of human colonic epithelial cells by compounds/products according to the invention. Human colonic epithelial cells (HCT 116) that were either wild type (WT) or deficient in TIFA protein expression (knockout, KO) were stimulated for 20 minutes in permeabilization buffer (5 μg/mL digitonin) in the presence of water or 10 μg/mL, 30 μg/mL, or 50 μg/mL of indicated synthetic compounds according to the invention. Treatment was removed, cells were washed, and cells were incubated for 6 hours in complete media before IL-8 levels in culture supernatants was measured by ELISA. The results are the mean±standard error of the mean of three technical replicates. JS-10: 7-O-(Aminoethyl)-D-glycero-β-D-manno-heptopyranose phosphate; JS-11: 7-O-(Aminoethyl) -D-glycero-D-manno-heptopyranose; JS-12: D-glycero-D-manno-heptose; Js-13: pH-Rhodo -7-O-(aminoethyl)-D-glycero-β-D-manno-heptopyranose phosphate.
(§1) FIG. 13. Stimulation of human colonic epithelial cells by compounds/products according to the invention. Human colonic epithelial cells (HCT 116) that were either wild type (WT) or deficient in TIFA protein expression (knockout, TIFA KO) were stimulated for 20 minutes in permeabilization buffer (5 μg/mL digitonin) in the presence of water, 20 μg/mL of the Nod1 agonist C12-iE-DAP (39.8 μM, which induces inflammation in a TIFA-independent manner) or 30 μM or 150 μM of synthetic compound according to the invention. Treatment was removed, cells were washed, and cells were incubated for 6 hours in complete media before IL-8 levels in culture supernatants were measured by ELISA. The results are the mean±standard error of the mean of two (150 μM treatment) or three (all other treatments) independent experiments. #=none detected, JS-10: 7-O-(Aminoethyl)-d-glycero-β-d-manno-heptopyranose phosphate; JS-14: Biotin-7-O-(aminoethyl)-d-glycero-β-d-manno-heptopyranose phosphate, Nod1 agonist: C12-iE-DAP (20 μg/ml, 39.8 μM).
as §1, with “16.” for “13.”, “of” for “of the mean of two (150 μM treatment) or”, “technical replicates. […]” for “(all other treatments) independent experiments. #=none detected, JS-10: 7-O-(Aminoethyl)-d-glycero-β-d-manno-heptopyranose phosphate; JS-14: Biotin-7-O-(aminoethyl)-d-glycero-β-d-manno-heptopyranose phosphate, Nod1 agonist: C12-iE-DAP (20 μg/ml, 39.8 μM).”
(In an ELISA, binding on a coated surface is turned into a signal by an enzyme label.)

Assay [2] concerns human macrophage cells (THP-1). Description: IL-8 ELISA in THP-1 cells after digitonin-permeabilised stimulation. It counts as cell-based. Conditions: FIG. 15, higher (150 μM) concentrations, digitonin 20 min, IL-8 after 6 hours. Here is the method:
FIG. 15. Stimulation of human macrophages by compounds/products according to the invention. Human macrophage cells (THP-1) were stimulated for 20 minutes in permeabilization buffer (5 μg/mL digitonin) in the presence of water, 39.8 μM of the Nod1 agonist C12-iE-DAP (which stimulates in a TIFA-independent manner), or either 30 μM or 150 μM of synthetic compound according to the invention. Treatment was removed, cells were washed, and cells were incubated for 6 hours in complete media before the IL-8 levels in culture supernatants were measured by ELISA. The results are the mean and standard error of the mean of three technical replicates. Nod1 agonist: C12-iE-DAP (20 μg/ml, 39.8 μM); JS-7: JS-7:D-glycero-β-D-manno-heptose-phosphate; JS-10: 7-O-(Aminoethyl)-D-glycero-β-D-manno-heptopyranose phosphate; JS-14: Biotin-7-O-(aminoethyl)-D-glycero-β-D-manno-heptopyranose phosphate.

For assay [3], the system named is TIFA knockout (TIFA KO) HEK 293T cells encoding an NF-κB-driven luciferase reporter gene. Description: NF-κB-driven luciferase reporter assay in TIFA knockout HEK 293T cells. Type of assay: cell-based, human. The following applies: TIFA KO cells. As to the method:
FIGS. 10A-B. Effect of chemically synthesised analogues on human embryonic kidney cells (HEK 293T) encoding an NF-κB-driven luciferase reporter gene. NF-κB luciferase activity was measured in wild type (WT) or TIFA knockout (TIFA KO) cells treated with compounds in the presence of digitonin for 20 min, washed, and then cultured in normal medium without the synthetic compounds for 6 hrs after treatment, before luciferase activity was measured. (A) Cells were treated with 10 μg/mL of the indicated compound. Data are means±standard error mean of technical triplicates. (B) Cells were treated with two different molar concentrations of compound (30 μM or 150 μM). Two batches of DD-β-HBP and DD-β-HMP synthesized independently of one another were tested (batch #1 and batch #2) to assess consistency of the chemical synthesis. Data are means±standard error mean of technical triplicates and are representative of three independent experiments. JS-12: D-glycero-D-manno-heptose; JS-2: D-glycero-D-manno-heptose 7-phosphate; JS-7:D-glycero-β-D-manno-heptose-phosphate; JS-8: D-glycero-α-D-manno-heptose-phosphate; JS-9: β-D-mannose phosphate; JS-6:D-glycero-β-D-manno heptose 1,7-biphosphate; JS-5: D-glycero-α-D-manno heptose 1,7-biphosphate.
(In general: A reporter such as luciferase makes a cellular process visible.)

As for `NCCOC[C@@H](O)C1O[C@@H](OP(=O)([O-])[O-])C(O)[C@@H](O)[C@@H]1O.[Na+].[Na+]` (stereo partly drawn) [JS-10a, 7-O-(Aminoethyl)-D-glycero-β-D-manno-heptopyranose phosphate], the “activity in TIFA KO cells (IL-8), TIFA dependence” value in assay [1] (FIG. 11, 10, 30 or 50 μg/mL) is reported as “relative absence of activity”; in assay [1] (FIG. 13, 30 μM or 150 μM (Nod1 agonist 39.8 μM)), “relative absence of activity”. Besides, the “inflammatory response (IL-8 in culture supernatant)” value in assay [2] is on record as “stimulate an inflammatory response”. The “activity in TIFA KO cells (NF-κB luciferase), TIFA dependence” value in assay [3] (FIG. 12, 10, 30 or 50 μg/mL) is “relative absence of activity”; in assay [3] (FIG. 14, 30 μM or 150 μM), “relative absence of activity”.
